Where “and” joins values, the source holds several entries; their conditions need not be identical. Equal values may be shown once.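 Grown in 96-well plates, cells were treated for 48 hours with each compound at five concentrations. Insufficient inhibition: endpoint recorded as highest concentration tested. GI50 is the concentration that inhibits growth by half. TGI: concentration producing complete growth inhibition.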
Key:
Assay in all cases: NCI tumour cell line growth inhibition, 48 h
[1] = test system: OVCAR-8 ovarian
[2] = test system: COLO 205 colon
[3] = test system: NCI-H23 lung
[4] = test system: UACC-257 melanoma
[5] = test system: SF-539 CNS
[6] = test system: SNB-19 CNS
[7] = test system: MALME-3M melanoma
[8] = test system: UACC-62 melanoma
[9] = test system: MDA-MB-231 breast
[10] = test system: HS 578T breast

SMILES | TGI [1] | TGI [2] [µM] | TGI [3] | TGI [4] | TGI [5] | TGI [6] | TGI [7] | TGI [8] [µM] | GI50 [1] [µM] | GI50 [2] [µM] | GI50 [9] [µM] | TGI [9] [µM] | GI50 [3] [µM] | GI50 [5] | GI50 [6] [µM] | GI50 [10] [µM] | TGI [10] [µM] | GI50 [7] [µM] | GI50 [4] [µM] | GI50 [8] [µM]
CCN(CC)c1ccc2c(c1)Nc1cc(=C(C#N)C#N)c3ccccc3c1=N2 | > 100 µM | > 100 | > 100 µM | > 100 µM | > 100 µM | > 100 µM | > 100 µM | > 100 | – | – | – | – | – | – | – | – | – | – | – | –
Cc1c2cc[n+](C)cc2c(C)c2c1[nH]c1ccc(O)c(OCC(F)(F)F)c12 | 25.5 µM | 12.6 | 5.48 µM | 18.9 µM | 9.72 µM | 5.33 µM | 8.47 µM | 25.2 | – | – | – | – | – | – | – | – | – | – | – | –
COC(=O)CCCCCN=Cc1c(O)c(O)c(C(C)C)c2cc(C)c(-c3c(C)cc4c(C(C)C)c(O)c(O)c(C=NCCCCCC(=O)OC)c4c3O)c(O)c12 | > 32.5 µM | 13.2 | > 32.5 µM | – | > 32.5 µM | > 32.5 µM | > 32.5 µM | – | 1.27 | 1.18 | 1.36 | > 32.5 | 1.32 | 1.6 µM | 1.21 | 1.68 | > 32.5 | 2.45 | – | –
S=c1nc(-c2cccnc2)[nH][nH]1 | – | > 100 | > 100 µM | > 100 µM | – | > 100 µM | > 100 µM | – | – | – | – | – | – | – | – | – | – | – | – | –
O=C1NC2(CN3CCC2CC3)C(=O)N1CN(Cc1ccccc1)c1ccccc1 (stereo not given) | > 100 µM | > 100 | > 100 µM | > 100 µM | > 100 µM | > 100 µM | – | > 100 | – | – | – | > 100 | – | – | – | – | > 100 | – | – | –
COc1ccc2c(c1)[n+]([O-])c(/C(C)=N/NC(=O)CC#N)c[n+]2[O-] | > 100 µM | > 100 | > 100 µM | > 100 µM | > 100 µM | > 100 µM | > 100 µM | > 100 | – | – | – | – | – | – | – | – | – | – | – | –
CCOC(=O)[C@H]1Nc2ccc(OC)cc2C2c3ccccc3CC21 (stereo not given in full) | > 100 µM | > 100 | > 100 µM | > 100 µM | > 100 µM | > 100 µM | > 100 µM | > 100 | – | – | – | – | – | – | – | – | – | – | – | –
CN1C(=O)C(Cl)(C(Cl)(Cl)S(=O)(=O)O)C(=O)c2ccccc21 (stereo not given) | > 100 µM | > 100 | > 100 µM | > 100 µM | > 100 µM | > 100 µM | 76.1 µM | > 100 | – | – | – | – | – | – | – | – | – | – | – | –
O=C([CH-]C(=O)C(F)(F)F)c1ccccc1.O=C([CH-]C(=O)C(F)(F)F)c1ccccc1.O=C([CH-]C(=O)C(F)(F)F)c1ccccc1.O=C([CH-]C(=O)C(F)(F)F)c1ccccc1.[Eu+3].c1ccncc1 | > 100 µM | > 100 | 19.5 µM | 55.2 µM | 92.8 µM | 94.8 µM | – | 63.3 | 6.58 | 28.8 | – | – | 3.7 | 16 µM | 4.33 | – | – | – | 11.9 | 6.67
C/C(=N\NC(N)=S)c1nc2ccc(Cl)cc2[nH]1 | 15.5 µM | 10.1 | 13.7 µM | > 50 µM | 9.7 µM | > 50 µM | – | 33.8 | 2.57 | 2.17 | 3.53 | 37.9 | 5.51 | 2.45 µM | 3.93 | 12.2 | > 50 | – | 5.05 | 2.2
COc1cc(Br)c(C=Nc2cccc3ccc(OS(=O)(=O)c4cccc([N+](=O)[O-])c4)cc23)cc1OC | 86.5 µM | > 100 | 44.8 µM | > 100 µM | 39.5 µM | > 100 µM | > 100 µM | > 100 | – | – | – | – | – | – | – | – | – | – | – | –
CCOC(=O)CC1NC(=O)CS1 (stereo not given) | > 100 µM | 16.3 | > 100 µM | > 100 µM | > 100 µM | > 100 µM | > 100 µM | > 100 | – | – | – | – | – | – | – | – | – | – | – | –
O=c1ccc(=O)c2c(=O)c3ccccc3c(=O)c1=2 | > 100 µM | > 100 | > 100 µM | 90.4 µM | 70.9 µM | > 100 µM | > 100 µM | > 100 | – | – | – | – | – | – | – | – | – | – | – | –
BrC1(Br)C2/C=C\CCCCC21 (stereo not given) | > 100 µM | > 100 | > 100 µM | > 100 µM | > 100 µM | > 100 µM | > 100 µM | – | – | – | – | – | – | – | – | – | – | – | – | –
N.N.N.N.N.N.O=N[O-].[Br-].[Co+3].[Co+3].[OH3+].[OH3+] | – | > 100 | > 100 µM | > 100 µM | > 100 µM | > 100 µM | > 100 µM | > 100 | – | > 100 | – | – | > 100 | > 100 µM | > 100 | – | – | > 100 | > 100 | > 100
CN[C@@H]1C[C@H]2O[C@@](C)([C@@H]1OC)n1c3ccccc3c3c4c(c5c6ccccc6n2c5c31)C(=O)N[C@@H]4O | 0.164 µM and 0.719 µM | 0.691 | 1.53 µM | 0.3 µM and 1.9 µM | 0.0314 µM and 0.0577 µM | 0.161 µM and 0.77 µM | 0.0589 µM and 0.461 µM | 0.908 | 0.0354 | – | – | 0.202 | – | 0.0196 µM | 0.0502 | – | – | 0.0154 | 0.0848 | –
c1cc(CNC2C3CCC(C3)C2c2c[nH]c3ccccc23)cc(CNC2C3CCC(C3)C2c2c[nH]c3ccccc23)c1 (stereo not given) | – | 3.03 | 3.34 µM and 2.88 µM | 3.82 µM | 3.39 µM and 3.17 µM | 2.26 µM | 3.45 µM | 3.04 | – | 1.54 | – | 2.81 | 1.47 | 1.89 µM and 1.74 µM | – | – | 3.32 | – | 2 | –
CCOc1ccccc1NC(=O)CCc1nc(=S)[nH][nH]1 | > 100 µM | > 100 | > 100 µM | > 100 µM | > 100 µM | > 100 µM | > 100 µM | > 100 | – | – | – | – | – | – | – | – | – | – | – | –
O=C1C2Cc3ccccc3CN2C(=O)N1CCN1CCCC1 (stereo not given) | > 100 µM | > 100 | > 100 µM | – | > 100 µM | > 100 µM | > 100 µM | > 100 | – | – | – | – | – | – | – | – | – | – | – | –
O=C1Nc2cccc3cc(NCC(O)CCl)cc1c23 (stereo not given) | > 100 µM | > 100 | > 100 µM | > 100 µM | – | > 100 µM | > 100 µM | > 100 | – | – | – | > 100 | – | – | – | – | > 100 | – | – | –
O=C1CCC(O)=C1O | > 100 µM | > 100 | > 100 µM | – | > 100 µM | > 100 µM | > 100 µM | > 100 | – | – | – | – | – | – | – | – | – | – | – | –

Reference: PubChem BioAssay (NCI)
